The values that follow come from patent EP0112685A1, “Compounds containing beta-lactams” (BEECHAM GROUP PLC, priority 1982, dated 1984).

The series is described as follows: Blood levels in mice after oral or subcutaneous administration, assayed by biological β-lactamase inhibition-zone technique. Format: in vivo. As to conditions: for concentration at 0.5 h: 30 mins after administration; for concentration at 0.75 h: 45 mins after administration; for concentration at 1 h: 60 mins after administration; for concentration at 1.5 h: 90 mins after administration; for concentration at 2 h: 120 mins after administration; for AUC: mice. On the procedure: The compound of Example 4 was administered either orally (by gastric lavage) or subcutaneously as a solution to groups of mice. At intervals after administration, 5 mice which had received the compound subcutaneously and 10 mice which had received the compound orally were sacrificed, and blood collected from the axillary region. The blood was assayed for content of compound 4 using a biological β-lactamase inhibition-zone assay technique. The mean values (+ standard deviation - SD) are tabulated below.

Where [1] appears, read: mouse, blood, sc, subcutaneous administration, 10 mg/kg, average for 5 mice.
Setting [2] is: mouse, blood, oral administration, 20 mg/kg, average for 10 mice.

A word on the AUC: it is concentration integrated over time. A lower AUC goes with low exposure.

Structures are written as SMILES.

`O=C(O)C1C(=CCOCCCl)OC2CC(=O)N21` (stereo not shown) [Example 4, Lithium 9-0-(2-chloroethyl)clavulanate]: the “levels in the blood of mice” value (administered by either an oral or parenteral route, result in words) is “high and prolonged levels”. The concentration at 10 min (mouse, blood, sc, subcutaneous administration, 10 mg/kg, 10 mins after administration, average for 5 mice) turned out to be 22800 ng/mL. Further, the concentration at 20 min (mouse, blood, sc, subcutaneous administration, 10 mg/kg, 20 mins after administration, average for 5 mice) came out at 17300 ng/mL. Moreover, under setting [1], the concentration at 0.5 h came out at 13300 ng/mL, the concentration at 0.75 h worked out at 7700 ng/mL, the concentration at 1 h was 5200 ng/mL and the concentration at 1.5 h was determined as 2700 ng/mL. The same compound returned a concentration at 2 h under setting [1] of 1800 ng/mL. Besides, the concentration at 0.25 h (mouse, blood, oral administration, 20 mg/kg, 15 mins after administration, average for 10 mice) turned out to be 16600 ng/mL. Moreover, under setting [2], the concentration at 0.5 h is 10500 ng/mL, the concentration at 0.75 h is 7940 ng/mL, the concentration at 1 h worked out at 7420 ng/mL and the concentration at 1.5 h came to 3910 ng/mL. Besides, the concentration at 2 h under setting [2] turned out to be 3200 ng/mL. The area under the curve (AUC) (mouse, sc, subcutaneous administration, 10 mg/kg, blood) came to 15100 ng·h/mL. For the same compound, the AUC (mouse, oral administration, 20 mg/kg, blood) was 14300 ng·h/mL.
